System: macrophages at lung metastatic site
Experiment: Early diagnosis of cancer metastasis in the 4T1-luc model: FDG-PET versus 111In-MSA-FL SPECT/CT (FIG. 8)
Type: in vivo, mouse
Excerpt: In order to verify the possibility of early diagnosis of cancer metastasis of the albumin-based nanoplatform conjugated with the mannosyl group, a model that may represent cancer metastasis was reproduced and confirmed through tissue staining whether it could actually reflect metastasis.
This animal model is known to naturally cause metastasis to secondary organs after transplanting cancer cells into mice, and is especially known to cause metastasis to the lung area, similar to the pattern of existing breast cancer.

## OC[C@H]1O[C@@H](O)[C@H]([18F])[C@@H](O)[C@@H]1O [FDG]
Day after modeling
  time at which cancer metastasis could be diagnosed: 28 days
Imaging on days 7, 14, 21, 28
  nuclear medicine signal/image in the lung area before metastasis: could hardly be confirmed
Quantification FIG. 8(b)
  uptake at the metastatic site, statistical significance: statistically significant difference only on Day 28

— patent US20240199722A1, “NANOPLATFORM FOR TARGETING MACROPHAGE AND COMPOSITION FOR PREVENTION OR TREATMENT OF METASTATIC CANCER” (SEOUL NATIONAL UNIVERSITY R&DB FOUNDATION, priority 2021, published 2024)
